In patent US20230055705A1, “SUBSTITUTED THIOPHENE CARBOXAMIDES AND DERIVATIVES THEREOF” (Bayer Aktiengesellschaft, priority 2019, published 2023):

Assays:
[1] = tested on: Xanthomonas campestris pv. campestris; experiment: In vivo preventive test on Xanthomonas campestris pv. campestris (black rot on cabbage); settings: evaluated 8 or 10 days after inoculation, read-out: efficacy; for pest or weed control at 31 ppm: 31 ppm of active ingredient; for pest or weed control at 125 ppm: 125 ppm of active ingredient
Method: The tested active ingredients were prepared by homogenization in a mixture of acetone/Dimethyl sulfoxide/Tween®, and then diluted with water to obtain the desired active material concentration.
The young plants of cabbage were treated by spraying the active ingredient prepared as described above. Control plants were treated only with an aqueous solution of acetone/Dimethyl sulfoxide/Tween®.
After 72 hours, the plants were contaminated by spraying the leaves with an aqueous bacteria suspension of Xanthomonas campestris pv. campestris. The contaminated cabbage plants were incubated for 8 or 10 days at 27° C. at 95% relative humidity.
The test was evaluated 8 or 10 days after the inoculation. 0% means an efficacy which corresponds to that of the control plants while an efficacy of 100% means that no disease was observed. […]
Compounds CMP1, CMP2, CMP3 and CMP4 were tested in an in vivo preventive test on Xanthomonas campestris pv. campestris (black rot on cabbage) in the same conditions as described in Example H.

[2] = tested on: Pseudomonas syringae pv. tomato; experiment: In vivo preventive test on Pseudomonas syringae pv. tomato (bacterial speck on tomato); settings: evaluated 5 or 6 days after inoculation, read-out: efficacy; for pest or weed control at 500 ppm: 500 ppm of active ingredient; for pest or weed control at 31 ppm: 31 ppm of active ingredient
Method: (§1) The tested active ingredients were prepared by homogenization in a mixture of acetone/Dimethyl sulfoxide/Tween®, and then diluted with water to obtain the desired active material concentration. The young plants of tomato were treated by spraying the active ingredient prepared as described above. Control plants were treated only with an aqueous solution of acetone/Dimethyl sulfoxide/Tween®.
After 72 hours, the plants were contaminated by spraying the leaves with an aqueous bacteria suspension of Pseudomonas syringae pv. tomato. The contaminated tomato plants were incubated for 4 days in saturated atmosphere at 22° C. day/20° C. night—70% HR and then for 1 or 2 days at 22° C. day/20° C. night at 70-80% relative humidity.
The test was evaluated 5 or 6 days after the inoculation. 0% means an efficacy which corresponds to that of the control plants while an efficacy of 100% means that no disease was observed.
Compounds CMP1 and CMP4 were tested in an in vivo preventive test on Pseudomonas syringae pv. tomato (bacterial speck on tomato) in the same conditions as described in Example J.

[3] = tested on: Colletotrichum lindemuthianum; experiment: In vivo preventive test on Colletotrichum lindemuthianum (Antrachnose on bean); settings: 144 h, inoculation 72 h after spraying, evaluated 6 days after inoculation, read-out: efficacy; for pest or weed control at 31 ppm: 31 ppm of active ingredient; for pest or weed control at 500 ppm: 500 ppm of active ingredient
Method: as §1, with “bean” for “tomato”
(§2) After 72 hours, the plants were contaminated by spraying the leaves with an aqueous suspension of Colletotrichum lindemuthianum spores. The contaminated bean plants were incubated for 24 hours at 20° C. and at 100% relative humidity and then for 5 days at 20° C. and at 90% relative humidity. The test was evaluated 6 days after the inoculation. 0% means an efficacy which corresponds to that of the control plants while an efficacy of 100% means that no disease was observed.
Compound CMP1 was tested in an in vivo preventive test on Colletotrichum lindemuthianum (Antrachnose on bean) in the same conditions as described in Example F.

Uromyces appendiculatus = experiment: In vivo preventive test on Uromyces appendiculatus (bean rust); settings: 240 h, evaluated 10 days after inoculation, read-out: efficacy; for pest or weed control at 500 ppm: 500 ppm of active ingredient; for pest or weed control at 125 ppm: 125 ppm of active ingredient
Method: as §1, with “bean” for “tomato”
as §2, with “Uromyces appendiculatus” for “Colletotrichum lindemuthianum”, “9” for “5”, “70-80%” for “90%”, “10” for “6”
Compounds CMP5 and CMP6 were tested in an in vivo preventive test on Uromyces appendiculatus (bean rust) in the same conditions as described in Example I.

[4] = tested on: salicylate responsive promoter sequence of the PR1 (pathogenesis-related protein I) gene (AT2G14610); experiment: Induction of defense gene expression in Arabidopsis thaliana (PR1 promoter-GFP reporter plants); format: in vivo; settings: 3rd day after spraying, mock treated leaves set as 1.00; for fold induction at 75 ppm / fold induction at 300 ppm: Arabidopsis thaliana, 72 h, read-out: relative fluorescence value; for fold induction at 75 ppm: 75 ppm of compound
Method: Arabidopsis thaliana reporter plants containing the coding sequence of a green fluorescent protein (GFP) linked to the salicylate responsive promoter sequence of the PR1 (pathogenesis-related protein I) gene (AT2G14610) were grown for five days and then sprayed with compounds. On the 3rd day after spraying, plant fluorescence was assessed with a MacroFluo instrument from Leica Microsystems (Wetzlar, Germany). Fluorescences were quantified with the Meta-Morph Microscopy Automation & Image Analysis Software (Molecular Devices, Sunnyvale, Calif., United States). Background fluorescence in mock treated leaves was set as 1.00.

Peronospora parasitica = experiment: In vivo preventive test on Peronospora parasitica (Crucifer downy mildew); settings: cabbage, evaluated 5 days after inoculation; for pest or weed control at 31 ppm / pest or weed control at 125 ppm / pest or weed control at 500 ppm: Hyaloperonospora parasitica, in Brassica oleracea, 120 h, read-out: efficacy; for pest or weed control at 31 ppm: 31 ppm of active ingredient; for pest or weed control at 125 ppm: 125 ppm of active ingredient
Method: as §1, with “cabbage” for “tomato”
After 72 hours, the plants were contaminated by spraying the leaves with an aqueous suspension of Peronospora parasitica spores. The contaminated cabbage plants were incubated for 5 days at 20° C. and at 100% relative humidity.
The test was evaluated 5 days after the inoculation. 0% means an efficacy which corresponds to that of the control plants while an efficacy of 100% means that no disease was observed.
Compounds CMP2 and CMP3 were tested in an in vivo preventive test on Peronospora parasitica (Crucifer downy mildew) in the same conditions as described in Example G.

[5] = LogP by HPLC on reversed phase columns (EEC directive 79/831 Annex V.A8); format: physicochemical; settings: for chromatographic logP: reversed phase HPLC columns
Method: In the above tables, measurement of LogP values was performed according to EEC directive 79/831 Annex V.A8 by HPLC (High Performance Liquid Chromatography) on reversed phase columns with the following methods: • ^[a]
Calibration was done with straight-chain alkan2-ones (with 3 to 16 carbon atoms) with known LogP values (measurement of LogP values using retention times with linear interpolation between successive alkanones). Lambda-max-values were determined using UV-spectra from 200 nm to 400 nm and the peak values of the chromatographic signals.

[6] = method [a]: LC-UV, in an acidic range, with 0.1% formic acid in water and acetonitrile as eluent (linear gradient from 10% to 95% acetonitrile)

| Structure (SMILES) | chromatographic logP [5, 6] | pest or weed control at 31 ppm [1] | pest or weed control at 500 ppm [2] | pest or weed control at 31 ppm [2] | pest or weed control at 500 ppm (Uromyces appendiculatus) | fold induction at 75 ppm [4] | fold induction at 300 ppm ([4]; 300 ppm) | pest or weed control at 31 ppm (Peronospora parasitica) | pest or weed control at 125 ppm (Peronospora parasitica) | pest or weed control at 500 ppm (Peronospora parasitica; 500 ppm of active ingredient) | pest or weed control at 500 ppm [3] | pest or weed control at 125 ppm (Uromyces appendiculatus) | other results |
| --- | --- | --- | --- | --- | --- | --- | --- | --- | --- | --- | --- | --- | --- |
| C[C@H](NC(=O)c1sc(Cl)c(Cl)c1Cl)C(=O)O [CMP1, reference compound] |  | < 40% | < 20% |  |  |  |  |  |  |  |  |  | pest or weed control at 31 ppm [3]: < 20% |
| COC(=O)[C@@H](NC(=O)c1sc(Cl)c(Cl)c1Cl)C(C)C [CMP4, reference compound] |  |  |  | 0% |  |  |  |  |  |  |  |  | pest or weed control at 125 ppm [1]: 0% |
| CC(C)[C@H](NC(=O)c1sc(Cl)c(Cl)c1Cl)C(=O)O [CMP5, reference compound] |  |  |  |  |  |  |  |  |  |  |  |  | pest or weed control at 8 ppm (Uromyces appendiculatus; 8 ppm): < 20% |
| CCOC(=O)[C@@H](NC(=O)c1sc(Cl)c(Cl)c1Cl)C(C)C [CMP6, reference compound] |  |  |  |  | < 40% |  |  |  |  |  |  |  |  |
| CCNC(=O)[C@@H](NC(=O)c1sc(Cl)c(Cl)c1Cl)C(C)C [I.090] |  | 70 to 79% | 90 to 100% | 90 to 100% | 90 to 100% | > 2 | > 2 | 90 to 100% | 90 to 100% | 90 to 100% | 90 to 100% | 80 to 89% |  |
| CCSC(=O)[C@@H](NC(=O)c1sc(Cl)c(Cl)c1Cl)C(C)C [I.094] |  |  | 80 to 89% |  | 90 to 100% |  | > 2 |  |  | 90 to 100% |  |  |  |
| CNC(=O)[C@@H](NC(=O)c1sc(Cl)c(Cl)c1Cl)C(C)C [I.096] | 2.97 |  |  |  |  |  |  |  |  |  |  |  | pest or weed control at 125 ppm [1]: 80 to 89% |
| CCOC(=O)C(C)N(OC)C(=O)c1sc(Cl)c(Cl)c1Cl (centres unmarked) [I.108] | 4.15 | 90 to 100% | 80 to 89% |  | 90 to 100% | > 2 | > 2 | 90 to 100% | 90 to 100% | 90 to 100% | 90 to 100% | 90 to 100% |  |
| CCOC(=O)C(C)N(C(=O)c1sc(Cl)c(Cl)c1Cl)C1CC1 (centres unmarked) [I.110] | 4.23 | 70 to 79% |  |  | 90 to 100% |  |  |  |  | 70 to 79% |  | 70 to 79% | pest or weed control at 125 ppm [1]: 70 to 79% |
| CCOC(=O)[C@H](C)NC(=S)c1sc(Cl)c(Cl)c1Cl [I.118] |  |  |  |  |  |  |  |  |  |  |  |  | efficacy (Peronospora parasitica; 500 ppm of active ingredient): 70%; LogP [5]: 5.21^[a] |
| O=C(O)c1ccccc1O [Salicylic acid, reference compound] |  |  |  |  |  |  |  |  |  |  |  |  | relative fluorescence value ([4]; 300 ppm): 2.70 |

Continued, in another order:

| chromatographic logP [5, 6] | Structure (SMILES) | pest or weed control at 31 ppm [1] | pest or weed control at 500 ppm [2] | pest or weed control at 31 ppm [2] | pest or weed control at 500 ppm (Uromyces appendiculatus) | fold induction at 75 ppm [4] | fold induction at 300 ppm ([4]; 300 ppm) | pest or weed control at 31 ppm (Peronospora parasitica) | pest or weed control at 125 ppm (Peronospora parasitica) | pest or weed control at 500 ppm (Peronospora parasitica; 500 ppm of active ingredient) | pest or weed control at 500 ppm [3] | pest or weed control at 125 ppm (Uromyces appendiculatus) | other results |
| --- | --- | --- | --- | --- | --- | --- | --- | --- | --- | --- | --- | --- | --- |
| 4.4 | CCSC(=O)[C@H](C)NC(=O)c1sc(Cl)c(Cl)c1Cl [I.089] |  | 90 to 100% | 90 to 100% | 90 to 100% | > 2 | > 2 | 90 to 100% | 90 to 100% | 90 to 100% | 90 to 100% | 90 to 100% |  |
| 2.35 | CNC(=O)[C@H](C)NC(=O)c1sc(Cl)c(Cl)c1Cl [I.091] |  |  |  | 70 to 79% |  | > 2 | 90 to 100% | 90 to 100% | 90 to 100% | 70 to 79% | 80 to 89% |  |
| 2.53 | NC(=S)CNC(=O)c1sc(Cl)c(Cl)c1Cl [I.104, N-(2-amino-2-sulfanylideneethyl)-3,4,5-trichlorothiophene-2-carboxamide] |  | 80 to 89% | 70 to 79% | 90 to 100% | > 2 | > 2 | 90 to 100% | 90 to 100% | 90 to 100% | 80 to 89% | 70 to 79% | chromatographic logP ([5]; given in the preparation examples, method not marked): 2.53 |
| 4.62 | COC(=O)[C@H](C)NC(=S)c1sc(Cl)c(Cl)c1Cl [I.117] |  | 80 to 89% | 80 to 89% | 90 to 100% | > 2 | > 2 | 90 to 100% | 90 to 100% | 90 to 100% | 90 to 100% | 90 to 100% | pest or weed control at 31 ppm [3]: 70 to 79% |
| 2.75 | CCNC(=O)[C@H](C)NC(=O)c1sc(Cl)c(Cl)c1Cl [I.120] | 80 to 89% |  |  | 90 to 100% | > 2 | > 2 | 90 to 100% | 90 to 100% | 90 to 100% | 90 to 100% | 90 to 100% | pest or weed control at 31 ppm [3]: 70 to 79% |
